# Reference: patent publication US20130189764A1, “SELECTIVE GROWTH MEDIA” (Oxide Limited, priority 2000, published 2013)
# How the values were obtained:
# E. coli OCC 2129 = assay: Bioscreen growth, comparison with conventional selective agents (Example 12); assay type: cell-based, Escherichia coli; conditions: at 12 hours
# Protocol: (§1) The following is an example to illustrate the beneficial lower toxic properties of the new selective agents towards the target microorganism, in this case Salmonella. Two selective agents, cefsulodin and novobiocin, as used conventionally in Salmonella isolation from foods (Humphrey and Whitehead, 1992 British Poultry Science 33, 761-768) were compared with alaphosphin. All were dissolved in deionised water, filter sterilised, and an amount of the solution added to either autoclaved Lab-Lemco broth+phosphate buffer (20 g/l; pH 6.0; ala-AEP) or Buffered Peptone Water (pH 6.8; cefsulodin and novobiocin) to give final concentrations of 66, 16.5 and 11 μg/ml respectively. [The different pH values reflect the different pH optima of the selective agents (ala-AEP was also subsequently used in BPW at pH 6.8 and similar results obtained)]. Volumes (300 μl) were then pipetted into the wells of Bioscreen microtitre plates and 30 μl quantities of 1 in 10,000 dilutions of overnight cultures of E. coli OCC 2129 and Salmonella typhimurium OCC 722, added. Plates were then covered, incubated at 37° C., and the opacity of the organism suspensions measured using a Bioscreen instrument.
# (§2) Typical results are shown in FIGS. 17-19, which are graphs of optical density against time for S. typhimurium (circles) and E. coli (squares) in the presence (empty symbols) or absence (filled symbols) of 15 μg/ml cefsulodin (FIG. 17), 10 μg/ml novobiocin (FIG. 18) or 60 μg/ml alaphosphin (FIG. 19).
# [1] = tested on: Salmonella typhimurium OCC 722; assay: as above; assay type: cell-based; conditions: Buffered Peptone Water pH 6.8
# Protocol: as §1, §2
# [2] = log octanol/water; footnote a: Leo et al (1971); cited from earlier work
# [3] = tested on: Enterococcus faecalis 501; assay: MIC in DMSal medium (Example 17); assay type: cell-based; conditions: Enterococcus faecalis 501, DMSal medium
# E. coli 607 = assay: MIC in DMSal medium (Example 17); assay type: cell-based; conditions: E. coli 607, DMSal medium
# Citrobacter freundii 370 = assay: MIC in DMSal medium (Example 17); assay type: cell-based; conditions: Citrobacter freundii 370, DMSal medium
# [4] = tested on: Enterococcus faecalis 640; assay: MIC in DMSal medium (Example 17); assay type: cell-based; conditions: Enterococcus faecalis 640, DMSal medium
# [5] = tested on: Enterococcus faecalis 581; assay: MIC in DMSal medium (Example 17); assay type: cell-based; conditions: Enterococcus faecalis 581, DMSal medium
# Source text: (§3) Isoleucyl-AEP and sarcosyl-alanyl-AEP were compared to ala-AEP (all in DMSal medium) for the ability to selectively recover two clinically important pathogenic bacteria: Salmonella and Staphylococcus aureus.
# S. aureus 198 = assay: MIC in DMSal medium (Example 17); assay type: cell-based; conditions: S. aureus 198, DMSal medium
# Source text: as §3
# S. aureus ss aureus 2355 = assay: MIC in DMSal medium (Example 17); assay type: cell-based; conditions: S. aureus ss aureus 2355, DMSal medium
# Source text: as §3
# S. aureus (MRSA) 934 = assay: MIC in DMSal medium (Example 17); assay type: cell-based; conditions: S. aureus (MRSA) 934, DMSal medium
# Source text: as §3
# Enterococcus faecium 220 = assay: MIC in DMSal medium (Example 17); assay type: cell-based; conditions: Enterococcus faecium 220, DMSal medium
# [6] = tested on: Salmonella typhimurium 722; assay: MIC in DMSal medium (Example 17); assay type: cell-based; conditions: for MIC: Salmonella typhimurium 722, DMSal medium; for effect on growth of Salmonella typhimurium: DMSal
# Protocol: as §3
# (§4) For selective growth of Salmonella inhibition of Citrobacter, Enterobacter sakazakii and E. coli is important. […] Sarcosyl-alanyl-AEP used at a concentration of 1.0 μg/ml is sufficient to inhibit the growth of all three undesired bacteria while having no effect on growth of Salmonella typhimurium. […] Alternatively, a concentration of 2.0 μg/ml of isoleucyl-AEP is required to inhibit the growth of Citrobacter, Enterobacter sakazakii and E. coli and this concentration has no effect on the Salmonella typhimurium strain tested.
# [7] = tested on: Citrobacter, Enterobacter sakazakii and E. coli; assay: inhibition of the three undesired bacteria in DMSal (Example 17); assay type: cell-based
# Protocol: as §3, §4
# [8] = tested on: Enterobacter sakazakii 1888; assay: MIC in DMSal medium (Example 17); assay type: cell-based; conditions: Enterobacter sakazakii 1888, DMSal medium
# [9] = tested on: E. faecalis 640 and S. aureus 106; assay: selective recovery of S. aureus on DMSal agar seeded with E. faecalis (Example 18); assay type: cell-based, Enterococcus faecalis, Staphylococcus aureus; conditions: 20 μg/ml, DMSal agar with horse serum (50 ml/L), approximately 24 hours at 37° C.
# Protocol: The effectiveness of sulfacetamide-β-D-galactoside as a selective agent for recovery of S. aureus in the presence of E. faecalis was tested. Sulfacetamide-β-D-galactoside (20 μg/ml) and horse serum (50 ml/L) was added to DMSal agar to make the test plates; DMSal agar without sulfacetamide-β-D-galactoside served as the control. All plates (with and without sulfacetamide-β-D-galactoside) were seeded with E. faecalis 640 and half of the total number of plates (with and without sulfacetamide-β-D-galactoside) were streaked with S. aureus 106. All plates were incubated for approximately 24 hours at 37° C.
# As FIGS. 22a and 22b show, all plates without sulfacetamide-β-D-galactoside supported growth of E. faecalis.
# [10] = tested on: Bacillus subtilis strain OCC 214; assay: growth on nutrient agar streak plates, pure culture (Example 1); assay type: cell-based; conditions: B. subtilis OCC214, nutrient agar, 0-10 mM tested
# Source text: In example 1 the sensitivity of Bacillus subtilis strain OCC 214 to alaphosphin or AEP was investigated. […] The organism is known to be LALA-ve, so the observations agree with the known characteristics of the organism.
# S. aureus OCC 102 = assay: growth on nutrient agar, mixed culture with K. pneumoniae (Example 6); assay type: cell-based, Staphylococcus aureus
# Source text: (§5) Example 1 was repeated, this time using a mixed culture of K. pneumoniae CMCC 3077 and S. aureus OCC 102. The results for growth in the presence of AEP or alaphosphin are shown in FIGS. 7 and 8 respectively: empty columns represent growth of S. aureus, the shaded columns represent growth of K. pneumoniae. […] Accordingly, there is a considerable alaphosphin concentration range over which S. aureus will readily grow whilst K. pneumoniae will be inhibited. Even if K. pneumoniae cells lyse due to the toxic effect of AEP released intracellularly, the AEP is not toxic for S. aureus at the concentrations involved.
# [11] = tested on: heat stressed Salmonella typhimurium (OCC 1792); assay: resuscitation of heat-stressed cells, microtitre MPN method (Example 14); assay type: cell-based; conditions: BPW supplemented with 3 different levels of AEP, relative to BPW alone
# Protocol: Salmonella typhimurium (OCC 1792) was heat stressed at 51.4° C. for 25 minutes according to the protocol of Stephens et al. (1997 J. Appl. Micro. 8, 445-455). Cells were diluted in 7 different resuscitation media: yeast extract broth with a high reactive oxygen species content that is inhibitory to stressed cells, SPRINT enrichment broth supplemented with Oxyrase that is an optimised resuscitation medium, BPW as the control that has typical resuscitation properties, BPW supplemented with NaCl that is inhibitory to stressed cells, and BPW supplemented with 3 different levels of AEP. Resuscitation was quantified using a microtitre MPN method.
# Typical results are shown in FIG. 20 which is a bar chart showing the difference in growth (Log cfu/ml) of the stressed cells in various media relative to growth in BPW alone.
# [12] = tested on: Salmonella typhimurium OCC 1870; assay: growth on nutrient agar streak plates, pure culture (Example 2); assay type: cell-based; conditions: S. typhimurium OCC 1870, nutrient agar, 0-10 mM tested
# Source text: Example 1 was repeated, using Salmonella typhimurium OCC 1870 as the test organism. The results are shown in FIG. 3, which uses the same key as FIG. 2.
# K. pneumoniae CMCC 3077 [13] = assay: growth on nutrient agar, mixed culture with B. subtilis (Example 8); assay type: cell-based, Klebsiella pneumoniae; conditions: all concentrations tested
# Source text: (§6) Example 6 was repeated, this time using a mixed culture of B. subtilis OCC 214 and K. pneumoniae CMCC 3077, in the presence of AEP or alaphosphin. The empty columns show the growth of B. subtilis, the shaded columns denote growth of K. pneumoniae.
# K. pneumoniae CMCC 3077 [14] = assay: growth on nutrient agar, mixed culture with S. aureus (Example 6); assay type: cell-based, Klebsiella pneumoniae
# Source text: as §5
# [15] = tested on: Enterococcus faecalis OCC 640; assay: growth on nutrient agar streak plates, pure culture (Example 3); assay type: cell-based; conditions: E. faecalis OCC 640, nutrient agar, 0-10 mM tested
# Source text: Example 1 was repeated using Enterococcus faecalis OCC 640 as the test organism.
# [16] = tested on: Klebsiella pneumoniae CMCC3077; assay: total viable count in Nutrient Broth (Example 10); assay type: cell-based; conditions: 5 mM in Nutrient Broth, 37° C.
# Protocol: Growth curve data on the activity of alaphosphin towards Klebsiella spp. was generated. Particular attention was paid to measuring the kinetics of inhibition in broth culture. The media used in this work were Buffered Peptone Water, Nutrient Broth and Tryptone Soya Agar. The media were prepared according to the manufacturer's instructions.
# The selective agents, AEP (Cat. No. 06655) and alaphosphin (Cat. No. 05260), were supplied by Fluka. They were dissolved in water at 0.5M concentration, filter-sterilised, and 100 μl added to 10 ml of Nutrient Broth to give a final concentration in the test medium of 5 mM of AEP or alaphosphin respectively.
# Klebsiella pneumnoniae CMCC3077 was chosen, as it is a food isolate and work had been carried out previously on this organism using alaphosphin and AEP (see preceding examples). The organism was inoculated into Nutrient Broth and incubated overnight at 37° C. […] The test media were incubated at 37° C., and sampled at hourly intervals. The cultures were serially diluted in Buffered Peptone Water and inoculated onto Tryptone Soya Agar. These plates were incubated overnight at 37° C. and the total viable count made the next day.
# Typical results are shown in FIG. 15 which is a graph of total viable count (log10 cfu/ml) against time (hours).
# [17] = tested on: Staphylococcus aureus OCC 102; assay: growth on nutrient agar streak plates, pure culture (Example 5); assay type: cell-based; conditions: S. aureus OCC 102, nutrient agar, all concentrations tested (up to 10 mM)
# Source text: Example 1 was repeated using Staphylococcus aureus OCC 102 as the test organism.
# B. subtilis OCC 214 = assay: growth on nutrient agar, mixed culture with K. pneumoniae (Example 8); assay type: cell-based, Bacillus subtilis; conditions: B. subtilis in mixed culture with K. pneumoniae
# Source text: as §6
# [18] = tested on: Klebsiella pneumoniae CMCC 3077; assay: growth on nutrient agar streak plates, pure culture (Example 4); assay type: cell-based; conditions: K. pneumoniae CMCC 3077, nutrient agar, 0-10 mM tested
# Source text: Example 1 was repeated using Klebsiella pneumoniae CMCC 3077 as the test organism. The results are shown in FIG. 5, and are qualitatively similar to those obtained in example 2.
compound,measurement,setting,value
CO[C@@H]1[C@@H](OC(N)=O)[C@@H](O)[C@H](Oc2ccc3c(O)c(NC(=O)c4ccc(O)c(CC=C(C)C)c4)c(=O)oc3c2C)OC1(C)C [novobiocin],growth of E. coli relative to S. typhimurium,E. coli OCC 2129; 10 μg/ml novobiocin,substantially outgrows
same,effect on growth of S. typhimurium,[1]; 10 μg/ml novobiocin,significantly inhibit
O=[N+]([O-])c1ccccc1O [2-nitrophenol],Log Partition Coefficient,[2],2.00^a
NC(=O)c1cc[n+](CC2=C(C(=O)O)N3C(=O)[C@@H](NC(=O)[C@@H](c4ccccc4)S(=O)(=O)[O-])[C@H]3SC2)cc1 [cefsulodin],growth of E. coli relative to S. typhimurium,E. coli OCC 2129; 15 μg/ml cefsulodin,substantially outgrows
same,effect on growth of S. typhimurium,[1]; 15 μg/ml cefsulodin,significantly inhibit
Nc1ccccc1 [Aniline],Log Partition Coefficient,[2],0.94^a
CNCC(=O)NC(C)C(=O)NC(C)P(=O)(O)O (stereo not drawn),MIC,[3],8 µg/mL
same,MIC,E. coli 607,0.05 µg/mL
same,MIC,Citrobacter freundii 370,1.0 µg/mL
same,MIC,[4],16 µg/mL
same,MIC,[5],8 µg/mL
same,MIC,S. aureus 198,>100 µg/mL
same,MIC,S. aureus ss aureus 2355,>100 µg/mL
same,MIC,S. aureus (MRSA) 934,>100 µg/mL
same,MIC,Enterococcus faecium 220,>256 µg/mL
same,MIC,[6],2.0 µg/mL
same,effect on growth of Salmonella typhimurium,[6]; sarcosyl-alanyl-AEP at 1.0 μg/ml,no effect
same,concentration sufficient / required to inhibit the growth of all three undesired bacteria,[7],1.0 µg/mL
same,MIC,[8],0.01 µg/mL
"CCC(C)C(N)C(=O)NC(C)P(=O)(O)O (stereo not drawn) [isoleucyl-AEP, Isoleucyl-AEP]",MIC,[3],5 µg/mL
same,MIC,E. coli 607,2.0 µg/mL
same,MIC,Citrobacter freundii 370,2.0 µg/mL
same,MIC,[4],5 µg/mL
same,MIC,[5],5 µg/mL
same,MIC,S. aureus ss aureus 2355,>200 µg/mL
same,MIC,Enterococcus faecium 220,5 µg/mL
same,MIC,[6],10 µg/mL
same,effect on growth of Salmonella typhimurium,[6]; isoleucyl-AEP at 2.0 μg/ml,no effect
same,concentration sufficient / required to inhibit the growth of all three undesired bacteria,[7],2.0 µg/mL
same,MIC,[8],2.0 µg/mL
CC(=O)NS(=O)(=O)c1ccc(N[C@@H]2O[C@H](CO)[C@H](O)[C@H](O)[C@H]2O)cc1 [sulfacetamide-β-D-galactoside],colonies observed on plates seeded with E. faecalis and streaked with S. aureus,[9],only colonies of S. aureus were observed
"CC(N)P(=O)(O)O [AEP, L-1-aminoethylphosphonic acid, reference compound]",concentration at which growth is inhibited,[10],≥ 5 mM
same,inhibition of growth (in words),S. aureus OCC 102,neither organism was inhibited
same,effect on resuscitation of heat-stressed Salmonella,[11],did not significantly affect
same,concentration at which growth is completely inhibited,[12],> 10 mM
same,sensitivity of growth (in words),K. pneumoniae CMCC 3077 [13],insensitive
same,inhibition of growth (in words),K. pneumoniae CMCC 3077 [14],neither organism was inhibited
same,concentration at which growth is completely inhibited,[15],≥ 5 mM
same,effect on growth compared with Nutrient Broth control,[16],little effect
same,sensitivity of growth (in words),[17],completely insensitive
same,concentration above which some sensitivity is exhibited,B. subtilis OCC 214,above 5 mM
same,concentration at which growth is completely inhibited,[18],> 10 mM
